Assay results: patent US12509444B2, “Compounds and methods for CD73 modulation and indications therefor” (Plexxikon Inc., priority 2019, dated 2025)

Key:
human CD73 = target: T1, human CD73 (Homo sapiens, UniProt P21589); experiment: Inhibitor activity against CD73 in cell based assay (CD73 expressing CHO-K1 cells); settings: CHO-K1 cells expressing human CD73, 150 μM AMP, 4 hours of incubation; read-out: CHO-K1 CELL VARIANT: CD73 IC50
T1 construct: expressed in transfected cells
T1 sequence (P21589 27-549): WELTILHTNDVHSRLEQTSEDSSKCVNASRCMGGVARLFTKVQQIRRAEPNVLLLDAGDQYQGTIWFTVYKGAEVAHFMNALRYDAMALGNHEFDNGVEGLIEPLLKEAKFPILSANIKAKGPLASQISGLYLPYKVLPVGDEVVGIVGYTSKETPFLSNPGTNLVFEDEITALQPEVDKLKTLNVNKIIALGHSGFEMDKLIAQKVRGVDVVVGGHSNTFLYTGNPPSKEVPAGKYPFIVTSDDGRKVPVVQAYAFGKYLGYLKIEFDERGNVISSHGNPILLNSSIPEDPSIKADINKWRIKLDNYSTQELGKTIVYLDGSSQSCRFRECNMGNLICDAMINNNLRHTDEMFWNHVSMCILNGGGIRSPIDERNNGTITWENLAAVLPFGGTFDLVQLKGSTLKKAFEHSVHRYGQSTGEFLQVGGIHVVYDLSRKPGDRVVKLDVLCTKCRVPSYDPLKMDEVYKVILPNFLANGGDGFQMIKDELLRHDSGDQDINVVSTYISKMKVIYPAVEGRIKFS
Method in brief: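 Residual supernatant AMP was quantified via CellTiter-Glo luminescence (1 μM ATP added, 30 min, room temperature) after a 4 h exposure of human CD73-expressing CHO-K1 cells to 150 μM AMP plus compound, top final 10 μM, 8 points. IC50 came from nonlinear regression of percent inhibition.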

[1] = target: T2, Human CD73 (amino acid residues 27-549) (Homo sapiens, UniProt P21589); experiment: CD73 enzymatic assay (luciferase-based indirect assay, CellTiter-Glo); assay type: biochemical; settings: 0.4 nM CD73, 150 μM AMP, 1 hour at room temperature
T2 construct: Human CD73 (amino acid residues 27-549); His tag (N); made in house; host or cells: E. coli
T2 sequence (P21589 27-549): T1 sequence (P21589 27-549)
Method in brief: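 Residual AMP inhibits luciferase, so luminescence reports CD73 turnover; read with CellTiter-Glo 2.0 plus 1 μM final ATP, 30 min. Reaction used 0.4 nM N-His CD73 (27-549, E. coli), 150 μM AMP, HEPES pH 7.4 with Tween 20, 1 h at room temperature. IC50 fitted by nonlinear regression.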

SMILES	IC50 (human CD73) [µM]	IC50 [1] [µM]
O=C(N[C@@H]1CCC[C@H]1CO)O[C@@H]1CCN(c2cn[nH]c(=O)c2Cl)C1 [P-0508, (R)-1-(5-chloro-6-oxo-1,6-dihydropyridazin-4-yl)pyrrolidin-3-yl ((1R,2R)-2-(hydroxymethyl)cyclopentyl) carbamate]	0.001 to 10	0.001 to 10
O=C(N[C@@H]1CCC[C@H]1C(F)F)O[C@@H]1CCN(c2cn[nH]c(=O)c2Cl)C1 [P-0509, (R)-1-(5-chloro-6-oxo-1,6-dihydropyridazin-4-yl)pyrrolidin-3-yl ((1R,2R)-2-(difluoromethyl)cyclopentyl) carbamate]	0.001 to 10	0.001 to 10
CC(F)(F)[C@@H]1CCC[C@H]1NC(=O)O[C@@H]1CCN(c2cn[nH]c(=O)c2Cl)C1 [P-0510, (R)-1-(5-chloro-6-oxo-1,6-dihydropyridazin-4-yl)pyrrolidin-3-yl ((1R,2R)-2-(1,1-difluoroethyl)cyclopentyl) carbamate]	0.001 to 10	0.001 to 10
O=C(N[C@@H]1CCCC(F)(F)C1)O[C@@H]1CCN(c2cn[nH]c(=O)c2Cl)C1 [P-0512, (R)-1-(5-chloro-6-oxo-1,6-dihydropyridazin-4-yl)pyrrolidin-3-yl ((R)-3,3-difluorocyclohexyl)carbamate]	0.001 to 10	0.001 to 10
O=C(NC1CCC1)O[C@@H]1CCN(c2cn[nH]c(=O)c2Cl)C1 [P-0516, (R)-1-(5-chloro-6-oxo-1,6-dihydropyridazin-4-yl)pyrrolidin-3-yl cyclobutylcarbamate]	0.001 to 10	0.001 to 10

Results, then the molecule that gave them:

IC50 (human CD73) [µM]	IC50 [1] [µM]	SMILES
0.001 to 10	0.001 to 10	O=C(N[C@H]1CCCC(F)(F)C1)O[C@@H]1CCN(c2cn[nH]c(=O)c2Cl)C1 [P-0511, (R)-1-(5-chloro-6-oxo-1,6-dihydropyridazin-4-yl)pyrrolidin-3-yl ((S)-3,3-difluorocyclohexyl)carbamate]
0.001 to 10	0.001 to 10	O=C(N[C@@H]1CCCC(F)(F)C1)O[C@@H]1CCN(c2cnn(CCO)c(=O)c2Cl)C1 [P-0513, (R)-1-(5-chloro-1-(2-hydroxyethyl)-6-oxo-1,6-dihydropyridazin-4-yl)pyrrolidin-3-yl ((R)-3,3-difluorocyclohexyl)carbamate]
0.001 to 10	0.001 to 10	O=C(N[C@H]1CCCC(F)(F)C1)O[C@@H]1CCN(c2cnn(CCO)c(=O)c2Cl)C1 [P-0514, (R)-1-(5-chloro-1-(2-hydroxyethyl)-6-oxo-1,6-dihydropyridazin-4-yl)pyrrolidin-3-yl ((S)-3,3-difluorocyclohexyl)carbamate]
0.001 to 10	0.001 to 10	N#CC1(NC(=O)O[C@@H]2CCN(c3cn[nH]c(=O)c3Cl)C2)CCC1 [P-0515, (R)-1-(5-chloro-6-oxo-1,6-dihydropyridazin-4-yl)pyrrolidin-3-yl (1-cyanocyclobutyl)carbamate]
0.001 to 10	0.001 to 10	CC1(C)C(NC(=O)O[C@@H]2CCN(c3cn[nH]c(=O)c3Cl)C2)C1(C)C [P-0517, (R)-1-(5-chloro-6-oxo-1,6-dihydropyridazin-4-yl)pyrrolidin-3-yl (2,2,3,3-tetramethylcyclopropyl) carbamate]
0.001 to 10	0.001 to 10	O=C(NC1(C(F)(F)F)CCC1)O[C@@H]1CCN(c2cn[nH]c(=O)c2Cl)C1 [P-0518, (R)-1-(5-chloro-6-oxo-1,6-dihydropyridazin-4-yl)pyrrolidin-3-yl (1-(trifluoromethyl)cyclobutyl) carbamate]
